Columns and labels:
Format in all cases: biochemical
PI3K-γ (p110γ) = PI3K-γ (p110γ) (Homo sapiens (Human), UniProt P48736); assay: Fluorescent determination of PI3K enzyme activity (Transcreener KINASE Assay), PI3K-γ; conditions: for PI3K-γ IH%: inhibition rate at 1 μM;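 on all read-outs here: p110γ enzyme reaction for 80 min at room temperature, ADP formed measured by far-red competitive fluorescence polarization immunoassay, inhibition relative to wells with 2% DMSO only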
Protocol: (§1) PI3K kinases including p110α/p85α and p110γ were purchased from Invitrogen, p110δ/p85α and p110β/p85α were from Millipore.
(§2) It is a universal, homogenous, high throughput screening (HTS) technology using a far-red, competitive fluorescence polarization immunoassay based on the defection of ADP to monitor the activity of enzymes that catalyze group transfer reactions. […] The reaction mixture was added into desired wells of a 96-well plate. The plate was sealed and incubated for 80 min at room temperature. • 2) Next, 25 uL ADP detection mix was added into each well. The plate was sealed again and incubated for 60 min at room temperature. Then fluorescence polarization was measured by Tecan Infinite F500 Reader.
(§3) Data was analyzed and IC50 values were generated using the add-in software for Microsoft Excel, Xlfit™ (version 5.3).
(§4) Inhibition rates were calculated as follow: IH %=(ADP amount under 2% DMSO well−ADP amount under test compound well)/ADP amount under 2% DMSO well×100%.

PI3K-β (p110β/p85α) = PI3K-β (p110β/p85α) (Homo sapiens (Human), UniProt P42338); assay: Fluorescent determination of PI3K enzyme activity (Transcreener KINASE Assay), PI3K-β; conditions: for PI3K-β IH%: inhibition rate at 1 μM;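 on all read-outs here: Far-red fluorescence polarization immunoassay detecting ADP produced by the kinase, 80 min enzyme reaction at room temperature, inhibition relative to ADP formed in 2% DMSO control wells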
Sequence of PI3K-β (p110β/p85α) (P42338 whole entry, species assumed): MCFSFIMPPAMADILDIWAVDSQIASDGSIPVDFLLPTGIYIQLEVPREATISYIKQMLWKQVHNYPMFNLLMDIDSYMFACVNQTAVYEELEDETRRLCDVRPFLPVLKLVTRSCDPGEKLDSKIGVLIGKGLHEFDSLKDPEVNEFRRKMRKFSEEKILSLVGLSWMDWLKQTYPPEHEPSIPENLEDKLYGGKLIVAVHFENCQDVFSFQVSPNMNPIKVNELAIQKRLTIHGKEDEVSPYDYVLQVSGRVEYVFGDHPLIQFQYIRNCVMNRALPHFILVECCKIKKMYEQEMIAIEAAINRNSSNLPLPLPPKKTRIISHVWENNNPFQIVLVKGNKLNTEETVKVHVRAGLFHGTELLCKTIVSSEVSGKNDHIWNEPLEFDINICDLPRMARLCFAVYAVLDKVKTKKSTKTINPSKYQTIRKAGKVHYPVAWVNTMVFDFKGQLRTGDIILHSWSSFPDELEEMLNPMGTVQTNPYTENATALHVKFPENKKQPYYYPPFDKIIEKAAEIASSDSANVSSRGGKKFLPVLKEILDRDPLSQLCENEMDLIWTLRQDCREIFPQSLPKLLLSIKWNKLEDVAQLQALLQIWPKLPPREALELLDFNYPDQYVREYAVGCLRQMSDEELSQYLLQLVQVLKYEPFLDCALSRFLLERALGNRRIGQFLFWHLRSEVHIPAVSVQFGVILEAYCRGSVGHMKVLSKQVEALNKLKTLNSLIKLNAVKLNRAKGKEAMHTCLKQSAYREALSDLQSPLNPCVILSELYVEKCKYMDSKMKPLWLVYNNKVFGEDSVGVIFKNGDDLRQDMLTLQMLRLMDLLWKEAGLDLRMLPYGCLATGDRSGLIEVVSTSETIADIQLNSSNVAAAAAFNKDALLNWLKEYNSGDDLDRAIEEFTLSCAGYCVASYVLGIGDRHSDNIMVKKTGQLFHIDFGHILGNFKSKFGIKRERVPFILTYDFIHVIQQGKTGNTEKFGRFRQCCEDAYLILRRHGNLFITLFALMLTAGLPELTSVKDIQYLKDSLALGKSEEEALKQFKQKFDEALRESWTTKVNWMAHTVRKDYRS
Sequence of PI3K-β (p110β/p85α) (P27986 whole entry partner, species assumed): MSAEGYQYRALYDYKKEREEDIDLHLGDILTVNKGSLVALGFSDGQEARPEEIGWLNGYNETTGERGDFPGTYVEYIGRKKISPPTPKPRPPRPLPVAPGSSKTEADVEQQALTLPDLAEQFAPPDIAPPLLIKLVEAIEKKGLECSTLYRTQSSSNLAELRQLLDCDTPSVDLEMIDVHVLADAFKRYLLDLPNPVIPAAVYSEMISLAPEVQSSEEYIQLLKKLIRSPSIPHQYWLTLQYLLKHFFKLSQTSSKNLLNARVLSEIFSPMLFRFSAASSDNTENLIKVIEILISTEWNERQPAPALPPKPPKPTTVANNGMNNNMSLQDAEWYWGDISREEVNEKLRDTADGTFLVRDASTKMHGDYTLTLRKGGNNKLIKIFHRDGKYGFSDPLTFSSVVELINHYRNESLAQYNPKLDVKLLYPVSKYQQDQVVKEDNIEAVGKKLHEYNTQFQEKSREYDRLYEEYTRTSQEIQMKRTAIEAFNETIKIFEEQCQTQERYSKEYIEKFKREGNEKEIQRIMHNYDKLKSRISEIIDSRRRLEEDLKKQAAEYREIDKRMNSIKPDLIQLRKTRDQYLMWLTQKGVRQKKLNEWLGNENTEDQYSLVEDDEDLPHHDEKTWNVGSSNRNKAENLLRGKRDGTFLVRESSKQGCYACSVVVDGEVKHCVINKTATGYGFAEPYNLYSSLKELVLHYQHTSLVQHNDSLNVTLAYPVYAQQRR
Protocol: as §1, §2, §3, §4

PI3K-δ (p110δ/p85α) = PI3K-δ (p110δ/p85α) (Homo sapiens (Human), UniProt O00329); assay: Fluorescent determination of PI3K enzyme activity (Transcreener KINASE Assay), PI3K-δ; conditions: for PI3K-δ IH%: inhibition rate at 1 μM
Sequence of PI3K-δ (p110δ/p85α) (O00329 whole entry, species assumed): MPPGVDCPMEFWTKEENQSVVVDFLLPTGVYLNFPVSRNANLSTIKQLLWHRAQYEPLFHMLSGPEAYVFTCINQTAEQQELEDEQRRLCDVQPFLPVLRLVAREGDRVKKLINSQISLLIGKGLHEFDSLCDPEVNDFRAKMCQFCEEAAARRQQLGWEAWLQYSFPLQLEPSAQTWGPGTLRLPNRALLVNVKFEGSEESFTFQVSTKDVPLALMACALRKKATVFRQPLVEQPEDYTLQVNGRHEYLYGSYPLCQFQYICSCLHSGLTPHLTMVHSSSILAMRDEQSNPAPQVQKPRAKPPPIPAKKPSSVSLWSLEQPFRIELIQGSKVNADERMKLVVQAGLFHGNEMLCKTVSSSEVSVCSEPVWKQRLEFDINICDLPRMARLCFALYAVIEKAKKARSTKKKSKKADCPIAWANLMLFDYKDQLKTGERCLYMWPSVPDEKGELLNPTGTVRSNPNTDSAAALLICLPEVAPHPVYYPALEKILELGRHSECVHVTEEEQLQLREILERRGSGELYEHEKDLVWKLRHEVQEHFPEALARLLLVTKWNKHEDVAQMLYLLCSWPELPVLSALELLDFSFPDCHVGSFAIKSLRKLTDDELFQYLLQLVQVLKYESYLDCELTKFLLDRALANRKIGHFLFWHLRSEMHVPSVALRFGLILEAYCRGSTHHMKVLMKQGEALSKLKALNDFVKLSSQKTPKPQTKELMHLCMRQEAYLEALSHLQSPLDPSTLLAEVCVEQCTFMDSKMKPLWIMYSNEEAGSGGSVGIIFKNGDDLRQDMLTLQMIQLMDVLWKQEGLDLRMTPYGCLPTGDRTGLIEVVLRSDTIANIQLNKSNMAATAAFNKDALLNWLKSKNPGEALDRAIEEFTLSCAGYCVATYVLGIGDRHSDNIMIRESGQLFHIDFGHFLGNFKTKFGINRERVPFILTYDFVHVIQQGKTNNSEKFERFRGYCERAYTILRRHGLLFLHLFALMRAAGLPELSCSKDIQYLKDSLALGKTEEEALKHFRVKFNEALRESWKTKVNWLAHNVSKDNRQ
Sequence of PI3K-δ (p110δ/p85α) (P27986 whole entry partner, species assumed): as the sequence (P27986 whole entry partner, species assumed) above
Protocol: as §1, §2, §3, §4

Sequence of PI3K-γ (p110γ) (P48736 whole entry, species assumed): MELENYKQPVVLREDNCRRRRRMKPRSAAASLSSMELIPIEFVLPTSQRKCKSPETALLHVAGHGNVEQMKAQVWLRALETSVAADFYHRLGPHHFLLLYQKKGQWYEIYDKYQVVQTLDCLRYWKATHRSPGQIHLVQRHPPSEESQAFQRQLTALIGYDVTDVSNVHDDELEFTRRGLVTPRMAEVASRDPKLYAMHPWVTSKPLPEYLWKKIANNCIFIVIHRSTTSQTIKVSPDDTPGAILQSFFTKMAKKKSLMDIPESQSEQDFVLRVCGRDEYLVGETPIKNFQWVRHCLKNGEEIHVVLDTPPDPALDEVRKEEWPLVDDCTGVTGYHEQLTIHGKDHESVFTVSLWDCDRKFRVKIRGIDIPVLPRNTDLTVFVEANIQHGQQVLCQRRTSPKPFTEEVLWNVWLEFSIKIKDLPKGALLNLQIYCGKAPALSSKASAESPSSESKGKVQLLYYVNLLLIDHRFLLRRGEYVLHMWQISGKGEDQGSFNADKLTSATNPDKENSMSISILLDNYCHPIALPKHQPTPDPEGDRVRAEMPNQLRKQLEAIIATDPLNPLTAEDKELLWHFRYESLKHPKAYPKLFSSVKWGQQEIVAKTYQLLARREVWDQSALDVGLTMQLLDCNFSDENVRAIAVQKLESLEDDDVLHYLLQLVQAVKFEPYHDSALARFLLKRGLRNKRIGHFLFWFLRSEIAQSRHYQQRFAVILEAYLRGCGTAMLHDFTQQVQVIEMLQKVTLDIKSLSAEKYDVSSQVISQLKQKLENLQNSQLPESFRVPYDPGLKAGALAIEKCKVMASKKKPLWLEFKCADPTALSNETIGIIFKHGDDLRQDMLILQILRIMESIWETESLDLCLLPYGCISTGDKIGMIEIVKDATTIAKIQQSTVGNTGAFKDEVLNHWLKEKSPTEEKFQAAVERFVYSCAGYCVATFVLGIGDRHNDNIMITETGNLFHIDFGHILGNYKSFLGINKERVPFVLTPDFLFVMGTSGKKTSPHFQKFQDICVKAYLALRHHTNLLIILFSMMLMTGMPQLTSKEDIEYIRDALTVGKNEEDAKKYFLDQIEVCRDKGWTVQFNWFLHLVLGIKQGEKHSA

SMILES	PI3K-γ IH% (PI3K-γ (p110γ))	PI3K-β IH% (PI3K-β (p110β/p85α))	further results
CC(Nc1ncnc2[nH]cc(C#N)c12)c1cc2ncc(Cl)n2nc1-c1ccccc1 (single isomer, unassigned) [Compound 9]	−1.4%		
CC(Nc1ncnc2[nH]cnc12)c1cc2ncc(Cl)n2nc1-c1ccccc1 (single isomer, unassigned) [Compound 11]		55.7%	
CCC(Nc1ncnc2[nH]cnc12)c1cc2ncc(Cl)n2nc1-c1ccccc1F (single isomer, unassigned) [Compound 25]			IC50 (PI3K-δ (p110δ/p85α)): 4 nM; IC50 (PI3K-γ (p110γ)): 2590 nM
CCC(Nc1ncnc2[nH]cnc12)c1cc2ncc(Cl)n2nc1-c1ccccc1F (single isomer, unassigned) [Compound 26]			IC50 (PI3K-δ (p110δ/p85α)): 839 nM
C[C@H](Nc1ncnc(N)c1C#N)c1cc2ncc(Cl)n2nc1-c1cccc(C(C)(C)O)c1 (single isomer, unassigned) [Compound 79, (chiral)-4-amino-6-((1-(3-chloro-6-(3-(2-hydroxypropan-2-yl)phenyl)imidazo[1,2-b]pyridazin-7-yl)ethyl)amino)pyrimidine-5-carbonitrile]	56.2%	43.8%	
CC(Nc1ncnc(N)c1C#N)c1cc2nccn2nc1-c1ccccc1 (centres unmarked) [Compound 1, 4-amino-6-((1-(6-phenylimidazo[1,2-b]pyridazin-7-yl)ethyl)amino)pyrimidine-5-carbonitrile]	16.1%	28.1%	
C[C@@H](Nc1ncnc(N)c1C#N)c1cc2ncc(Cl)n2nc1-c1ccccc1 [Compound 3, (R)-4-amino-6-((1-(3-chloro-6-phenylimidazo[1,2-b]pyridazin-7-yl)ethyl)amino)pyrimidine-5-carbonitrile]	6.9%		
CC[C@@H](Nc1ncnc(N)c1C#N)c1cc2ncc(Cl)n2nc1-c1ccccc1 [Compound 5, (R)-4-amino-6-((1-(3-chloro-6-phenylimidazo[1,2-b]pyridazin-7-yl)propyl)amino)pyrimidine-5-carbonitrile]		−10.7%	PI3K-δ IH% (PI3K-δ (p110δ/p85α)): 47.3%
CC[C@H](Nc1ncnc(N)c1C#N)c1cc2ncc(Cl)n2nc1-c1ccccc1 [Compound 6, (S)-4-amino-6-((1-(3-chloro-6-phenylimidazo[1,2-b]pyridazin-7-yl)propyl)amino)pyrimidine-5-carbonitrile]	4.1%		
C[C@@H](Nc1ncnc(N)c1C#N)c1cc2ncc(Cl)n2nc1-c1ccccn1 [Compound 7, (R)-4-amino-6-((1-(3-chloro-6-(pyridin-2-yl)imidazo[1,2-b]pyridazin-7-yl)ethyl)amino)pyrimidine-5-carbonitrile]	61.1%	−2.7%	PI3K-δ IH% (PI3K-δ (p110δ/p85α)): 12.5%
C[C@H](Nc1ncnc(N)c1C#N)c1cc2ncc(Cl)n2nc1-c1ccccn1 [Compound 8, (S)-4-amino-6-((1-(3-chloro-6-(pyridin-2-yl)imidazo[1,2-b]pyridazin-7-yl)ethyl)amino)pyrimidine-5-carbonitrile]	−2.3%	37.7%	
CCC(Nc1ncnc2[nH]cnc12)c1cc2ncc(Cl)n2nc1-c1ccccc1 (centres unmarked) [Compound 14]	22.5%	3.2%	PI3K-δ IH% (PI3K-δ (p110δ/p85α)): 51.0%
C[C@H](Nc1ncnc(N)c1C#N)c1cc2ncc(Cl)n2nc1-c1cccc(F)c1 [Compound 15]		59%	
C[C@H](Nc1ncnc2[nH]cnc12)c1cc2ncc(Cl)n2nc1-c1cccc(F)c1 [Compound 16]		27.5%	
C[C@H](Nc1ncnc2[nH]ccc12)c1cc2ncc(Cl)n2nc1-c1ccccc1 [Compound 17]	61.2%	15.8%	
CCC(Nc1ncnc2[nH]cnc12)c1cc2ncc(Cl)n2nc1-c1ccccc1 (centres unmarked) [Compound 18]		42%	
C[C@@H](c1cc2ncc(Cl)n2nc1-c1ccccc1)n1cnc2c(N)ncnc21 [Compound 20, (S)-9-(1-(3-chloro-6-phenylimidazo[1,2-b]pyridazin-7-yl)ethyl)-9H-purin-6-amine]	43.1%	17.4%	
CCC(Nc1ncnc(N)c1C#N)c1cc2ncc(Cl)n2nc1-c1cccc(F)c1 (centres unmarked) [Compound 24]	44.5%	46.6%	
CCC(Nc1ncnc2[nH]cnc12)c1cc2ncc(Cl)n2nc1-c1ccccc1F (centres unmarked) [Compound 25]		22.8%	
CCC(Nc1ncnc2[nH]cnc12)c1cc2ncc(Cl)n2nc1-c1ccccc1F (centres unmarked) [Compound 26]	8%	−7.5%	
C[C@@H](c1cc2ncc(Cl)n2nc1-c1ccccc1)n1ccc2c(N)ncnc21 [Compound 27, (S)-7-(1-(3-chloro-6-phenylimidazo[1,2-b]pyridazin-7-yl)ethyl)-7H-pyrrolo[2,3-d]pyrimidin-4-amine]	24.9%	9.5%	
CCC(Nc1ncnc(N)c1C#N)c1cc2ncc(Cl)n2nc1-c1ccccn1 (centres unmarked) [Compound 29]	35%		
Cc1nc(N)c(C#N)c(N[C@@H](C)c2cc3ncc(Cl)n3nc2-c2ccccc2)n1 [Compound 32]		23.8%	

SMILES	PI3K-γ IH% (PI3K-γ (p110γ))	PI3K-β IH% (PI3K-β (p110β/p85α))	further results
CNc1ncnc(N[C@@H](C)c2cc3ncc(Cl)n3nc2-c2ccccc2)c1C#N [Compound 33, (S)-4-((1-(3-chloro-6-phenylimidazo[1,2-b]pyridazin-7-yl)ethyl)amino)-6-(methylamino)pyrimidine-5-carbonitrile]	−6.9%	2.2%	
C[C@H](Nc1ncnc(N)c1C#N)c1cc2ncc(Cl)n2nc1-c1cc(F)ccc1F [Compound 35]	64.6%	67.6%	
C[C@H](Nc1ncnc(N)c1-c1cccc(F)c1)c1cc2ncc(Cl)n2nc1-c1ccccc1 [Compound 37, (S)-N^4-(1-(3-chloro-6-phenylimidazo[1,2-b]pyridazin-7-yl)ethyl)-5-(3-fluorophenyl)pyrimidine-4,6-diamine]	27.5%	−0.4%	
C[C@H](Nc1ncnc(N)c1-c1ccc(O)c(F)c1)c1cc2ncc(Cl)n2nc1-c1ccccc1 [Compound 38]	54.3%	−2.2%	
COc1ccc(-c2c(N)ncnc2N[C@@H](C)c2cc3ncc(Cl)n3nc2-c2ccccc2)cn1 [Compound 39]	28.1%	−4.4%	
C[C@@H](c1cc2ncc(Cl)n2nc1-c1ccccc1)N(C)c1ncnc(N)c1C#N [Compound 42, (S)-4-amino-6-((1-(3-chloro-6-phenylimidazo[1,2-b]pyridazin-7-yl)ethyl)(methyl)amino)pyrimidine-5-carbonitrile]	18.2%	7.4%	
CC[C@@H](Nc1ncnc(N)c1C#N)c1cc2ncc(Cl)n2nc1-c1cccc(F)c1 [Compound 43, (R)-4-amino-6-((1-(3-chloro-6-(3-fluorophenyl)imidazo[1,2-b]pyridazin-7-yl)propyl)amino)pyrimidine-5-carbonitrile]	27.2%	23.6%	
CC[C@@H](Nc1ncnc2[nH]cnc12)c1cc2ncc(Cl)n2nc1-c1cccc(F)c1 [Compound 44]	36.0%	18.8%	
CC[C@H](Nc1ncnc2[nH]cnc12)c1cc2ncc(Cl)n2nc1-c1cccc(F)c1 [Compound 47]	55.2%	32.2%	
C[C@H](Nc1nc[n+]([O-])c(N)c1C#N)c1cc2ncc(Cl)n2nc1-c1ccccc1 [Compound 51, (S)-6-amino-4-((1-(3-chloro-6-phenylimidazo[1,2-b]pyridazin-7-yl)ethyl)amino)-5-cyanopyrimidine 1-oxide]	36.7%	−15.5%	
C[C@H](Nc1ncnc(N)c1C(=O)O)c1cc2ncc(Cl)n2nc1-c1ccccc1 [Compound 52, (S)-4-amino-6-((1-(3-chloro-6-phenylimidazo[1,2-b]pyridazin-7-yl)ethyl)amino)pyrimidine-5-carboxylic acid]	−26.1%	−6.3%	
C[C@H](Nc1ncnc(N)c1C(N)=O)c1cc2ncc(Cl)n2nc1-c1ccccc1 [Compound 53, (S)-4-amino-6-((1-(3-chloro-6-phenylimidazo[1,2-b]pyridazin-7-yl)ethyl)amino)pyrimidine-5-carboxamide]	34.3%	30.5%	
C[C@H](Nc1ncnc(N)c1-c1cnn(C)c1)c1cc2ncc(Cl)n2nc1-c1ccccc1 [Compound 57]	30.3%	6.3%	
Cc1cn2nc(-c3ccccc3)c([C@H](C)Nc3ncnc(N)c3C#N)cc2n1 [Compound 58]	20.2%	20.5%	
C[C@H](Nc1ncnc(N)c1C#N)c1cc2ncc(Cl)n2nc1-c1ccc2cccnc2c1 [Compound 61]	26.5%	24.4%	
C[C@H](Nc1ncnc(N)c1C#N)c1cc2ncc(Cl)n2nc1-c1ccc(F)c(F)c1 [Compound 63]		48.1%	
C[C@H](Nc1ncnc(N)c1C#N)c1cc2ncc(Cl)n2nc1-c1ccc(Cl)c(F)c1 [Compound 64]		44.1%	
C[C@H](Nc1ncnc(N)c1C#N)c1cc2ncc(Cl)n2nc1-c1ccccc1O [Compound 69, (S)-4-amino-6-((1-(3-chloro-6-(2-hydroxyphenyl)imidazo[1,2-b]pyridazin-7-yl)ethyl)amino)pyrimidine-5-carbonitrile]			IC50 (PI3K-β (p110β/p85α)): 133 nM
C[C@H](Nc1ncnc(N)c1C#N)c1cc2ncc(Cl)n2nc1-c1ccc2ccccc2c1 [Compound 71]	32.6%	35.2%	
C[C@H](Nc1ncnc(N)c1C#N)c1cc2ncc(Cl)n2nc1-c1ccncc1 [Compound 73]	62.8%	60.8%	
C[C@H](Nc1ncnc(N)c1C#N)c1cc2ncc(Cl)n2nc1-c1ccc2scnc2c1 [Compound 74]	40.8%	49.4%	
Cc1noc(-c2c(N)ncnc2N[C@@H](C)c2cc3ncc(Cl)n3nc2-c2ccccc2)n1 [Compound 82, (S)-N^4-(1-(3-chloro-6-phenylimidazo[1,2-b]pyridazin-7-yl)ethyl)-5-(3-methyl-1,2,4-oxadiazol-5-yl)pyrimidine-4,6-diamine]		55.2%	
